Experimental data: patent US20210290568A1, “INHALABLE FORMULATION OF A SOLUTION CONTAINING LEVALBUTEROL TARTRATE” (priority 2020, published 2021)

Experiment: Aerodynamic particle size distribution by Andersen Cascade Impactor (ACI)
Format: physicochemical
Conditions: flow rate 28.3 L/min, Samples I-V
Procedure: An Andersen Cascade Impactor (ACI) was used to determine the particle size distribution of Samples I-V. The test was conducted at a flow rate of 28.3 L/min. Deposition of the active substance on each ACI plate was determined by high performance liquid chromatography. The particle size was expressed in terms of mass median aerodynamic diameter (MMAD) and Geometric Standard Deviation (GSD).

`CC(C)(C)NC[C@H](O)c1ccc(O)c(CO)c1.O=C(O)C(O)C(O)C(=O)O` [Levalbuterol Tartrate, 4-[(1R)-2-(tert-butylamino)-1-hydroxyethyl]-2-(hydroxymethyl)phenol; (2R,3R)-2,3-dihydroxybutanedioic acid] showed a GSD of 1.7 and an MMAD of 4.4 μm.
